Assay results reported in patent publication US8404646B2, “Methods for preventing or treating mitochondrial permeability transition” (Cornell Research Foundation, Inc., priority 2003, dated 2013).
Entries after “also recorded” stand apart in the source; their conditions may differ.

Assays:
[1] = tested on: several mammalian cell types; conditions: energy-independent manner; cited from earlier work
[2] = tested on: isolated mitochondria; assay: Mitochondrial swelling (absorbance 540 nm or light scattering 570 nm); format: biochemical, mouse
Procedure: (§1) MPT pore opening results in mitochondrial swelling. We examined the effects of [Dmt^1]DALDA on mitochondrial swelling by measuring reduction in absorbance at 540 nm (A540). The mitochondrial suspension was then centrifuged and cytochrome c in the mitochondrial pellet and supernatant determined by a commercially-available ELISA kit.
(§2) The methods for study are as described above for SS-02. In this example, mitochondrial swelling was measured using light scattering monitored at 570 nm.

[3] = tested on: Caco-2 cells; assay: 3NP-induced mitochondrial depolarization in cells (TMRM, LSCM); format: cell-based, human; conditions: 3NP 10 mM, peptide 0.1 μM, 4 h
Source text: In control cells, the mitochondria are clearly visualized as fine streaks throughout the cytoplasm.

[4] = tested on: CRFK cells; assay: Cellular uptake of [3H][Dmt1]DALDA, confirmation; format: cell-based
Procedure: (§3) The cellular uptake of [^3H][Dmt^1]DALDA was studied using a human intestinal epithelial cell line (Caco-2), and confirmed with SH-SY5Y (human neuroblastoma cell), HEK293 (human embryonic kidney cell) and CRFK cells (kidney epithelial cell). Monolayers of cells were grown on 12-well plates (5×10^5 cells/well) coated with collagen for 3 days. On day 4, cells were washed twice with pre-wanned HBSS, and then incubated with 0.2 ml of HBSS containing either 250 nM [^3H][Dmt^1]DALDA at 37° C. or 4° C. for various times up to 1 h.

[5] = tested on: isolated mitochondria; assay: Cytochrome c release from isolated mitochondria (ELISA); format: biochemical, mouse; conditions: Ca2+ overload
Procedure: as §1, §2

[6] = tested on: HEK293; assay: Cellular uptake of [3H][Dmt1]DALDA, confirmation; format: cell-based, human
Procedure: as §3

[7] = tested on: SH-SY5Y; assay: Cellular uptake of [3H][Dmt1]DALDA, confirmation; format: cell-based, human
Procedure: as §3

[8] = Estimated concentration in isolated perfused guinea pig hearts; conditions: coronary perfusate 0.1 μM
[9] = tested on: mitochondrial permeability transition (MPT) in isolated mitochondria; assay: Mitochondrial membrane potential and MPT measured with TMRM; format: biochemical, mouse; conditions: for mitochondrial potential / MPT on addition of peptide alone: 200 μM, TMRM; for tolerance of mitochondria to cumulative Ca2+ additions prior to MPT: 50 and 100 μM
Procedure: In addition to having no direct effect on mitochondrial potential, [Dmt^1]DALDA was able to protect against MPT induced by Ca^2+ overload.
3-Nitropropionic acid (3NP) is an irreversible inhibitor of succinate dehydrogenase in complex II of the electron transport chain. Addition of 3NP (1 mM) to isolated mitochondria caused dissipation of mitochondrial potential and onset of MPT (FIG. 2C).

[10] = tested on: Caco-2; assay: Cellular uptake of [3H][Dmt1]DALDA into cell monolayers; format: cell-based, human
Procedure: as §3
In a separate experiment, cells were incubated with a range of [Dmt^1]DALDA concentrations (1 μM-3 mM) for 1 h at 37° C. At the end of the incubation period, cells were washed 4 times with HBSS, and 0.2 ml of 0.1N NaOH with 1% SDS was added to each well. The cell contents were then transferred to scintillation vials and radioactivity counted. To distinguish between internalized radioactivity from surface-associated radioactivity, an acid-wash step was included. Prior to cell lysis, cells were incubated with 0.2 ml of 0.2 M acetic acid/0.05 M NaCl for 5 min on ice.

[11] = tested on: isolated guinea pig hearts; assay: Organ preservation: peptide in cardioplegic solution, prolonged ischemia of isolated heart; conditions: in St. Thomas cardioplegic solution 3 min, 90 min ischemia, 60 min reperfusion; listed as [Dmt^1]DALDA
Procedure: We examined whether [Dmt^1]DALDA prolongs survival of organs. In this study, [Dmt^1]DALDA was added to a commonly used cardioplegic solution (St. Thomas) to determine whether [[Dmt^1]DALDA enhances survival of the heart after prolonged ischemia (model of ex vivo organ survival).
Isolated guinea pig hearts were perfused in a retrograde fashion with an oxygenated Krebs-Henseleit solution at 34° C. After 30 min. of stabilization, the hearts were perfused with a cardioplegic solution CPS (St. Tohomas) with or without [Dmt^1]DALDA at 100 nM for 3 min. Global ischemia was then induced by complete interruption of coronary perfusion for 90 min. Reperfusion was subsequently carried out for 60 min. with oxygenated Krebs-Henseleit solution. Contractile force, heart rate and coronary flow were monitored continuously throughout the experiment.

[12] = tested on: isolated mouse liver mitochondria; assay: Uptake into isolated mitochondria (fluorescence quenching, radioactivity in pellet); format: in vitro ADME
Procedure: (FIG. 1A) Mitochondrial uptake of SS-19 was determined using fluorescence spectrophotometry (ex/em=320/420 nm). […] Pretreatment of mitochondria with FCCP (1.5 μM) reduced quenching by <20% (black line). […] Uptake was stopped by centrifugation (16000×g) for 5 min at 4° C., and radioactivity determined in the pellet. […] Data are shown as mean±s.e.; n=3. *, P<0.05 by Student's t-test. […] Black line, TMRM; red line, SS-19.
To isolate mitochondria from mouse liver, mice were sacrificed by decapitation. The liver was removed and rapidly placed into chilled liver homogenization medium. The liver was finely minced using scissors and then homogenized by hand using a glass homogenizer.
The homogenate was centrifuged for 10 min at 1000×g at 4° C. The supernatant was aspirated and transferred to polycarbonate tubes and centrifuged again for 10 min. at 3000×g, 4° C. The resulting supernatant was removed, and the fatty lipids on the side-wall of the tube were carefully wiped off.
The pellet was resuspended in liver homogenate medium and the homogenization repeated twice. The final purified mitochondrial pellet was resuspended in medium. Protein concentration in the mitochondrial preparation was determined by the Bradford procedure.
Approximately 1.5 mg mitochondria in 400 μl buffer was incubated with [^3H][Dmt^1]DALDA for 5-30 min at 37° C. The mitochondria were then centrifuged down and the amount of radioactivity determined in the mitochondrial fraction and buffer fraction. […] Thus [Dmt^1]DALDA is concentrated in mitochondria.
Thus uptake of [Dmt^1, AtnDap^4]DALDA was not potential-dependent.
To confirm that the mitochondrial targeting was not an artifact of the fluorophore, we also examined mitochondrial uptake of [^3H][Dmt^1]DALDA. Isolated mitochondria were incubated with [^3H][Dmt^1]DALDA and radioactivity determined in the mitochondrial pellet and supernatant.
We next examined the effect of mitochondrial swelling on the accumulation of [Dmt^1, AtnDap^4]DALDA in mitochondria by using alamethicin to induce swelling and rupture of the outer membrane. […] Thus, [Dmt^1]DALDA is associated with mitochondrial membranes.

[13] = tested on: isolated perfused guinea pig heart; assay: Ischemia-reperfusion myocardial stunning in isolated perfused heart (Langendorff); conditions: 100 nM, 30 min global ischemia
Procedure: Guinea pig hearts were rapidly isolated, and the aorta was cannulated in situ and perfused in a retrograde fashion with an oxygenated Krebs-Henseleit solution (pH 7.4) at 34° C. The heart was then excised, mounted on a modified Langendorff perfusion apparatus, and perfused at constant pressure (40 cm H2O). Contractile force was measured with a small hook inserted into the apex of the left ventricle and the silk ligature tightly connected to a force-displacement transducer. Coronary flow was measured by timed collection of pulmonary artery effluent.
Reperfusion was carried out with the same solution used prior to ischemia.

[14] = tested on: isolated mouse liver mitochondria; assay: Mitochondrial respiration (oxygen consumption); format: biochemical; conditions: 100 μM

2′,6′-dimethyltyrosine-D-Arg-Phe-Lys-NH2 [SS-02]
penetration of the plasma membrane [1]: readily penetrates the plasma membrane
mitochondrial swelling induced by Ca2+ ([2]; 200 μM Ca2+, absorbance at 540 nm): inhibited swelling; also recorded: dose dependently inhibited
mitochondrial swelling induced by MPP+ ([2]; MPP+ 300 μM): prevented mitochondrial swelling; also recorded: inhibited mitochondrial swelling
mitochondrial depolarization caused by 3NP in cells [3]: protected against mitochondrial depolarization
internalization [4]: observed
Ca2+-induced release of cytochrome c [5]: inhibited
internalization [6]: observed
internalization [7]: observed
Concentration of [Dmt1]DALDA in mitochondria [8]: 1000 µM
Concentration of [Dmt1]DALDA in myocyte [8]: 5 µM
mitochondrial potential / MPT on addition of peptide alone [9]: did not alter mitochondrial potential
mitochondrial potential / MPT on addition of peptide alone ([9]; listed as [Dmt^1]DALDA): did not cause mitochondrial depolarization or MPT
onset of MPT induced by 3NP ([9]; 1 mM 3NP, 0.5, 5, 50 μM peptide): dose-dependently delayed
tolerance of mitochondria to cumulative Ca2+ additions prior to MPT [9]: increased mitochondrial tolerance
tolerance of mitochondria to cumulative Ca2+ additions prior to MPT ([9]; listed as [Dmt^1]DALDA): dose-dependently increased
MPT induced by Ca2+ overload ([9]; pretreatment 10 μM): prevented onset of MPT
time at which [3H][Dmt1]DALDA was first observed in cell lysate ([10]; 250 nM, Caco-2): 5 min
time to steady state levels in cell lysate ([10]; 250 nM, Caco-2): ≤ 30 min
total amount recovered in the cell lysate, of the total drug ([10]; after 1 h incubation): about 1%
uptake at 4° C. compared to 37° C. ([10]; by 45 min): 76.5%
uptake at 4° C. compared to 37° C. ([10]; by 1 h): 86.3%
contractile function after prolonged ischemia [11]: significantly enhanced; also recorded: significantly improved
decrease of radioactivity associated with mitochondrial pellet by FCCP ([12]; 37° C., 2 min): ~20%
amount of radioactivity in the pellet over time ([12]; from 2 min to 8 min): did not change
myocardial contractile force during ischemia-reperfusion [13]: tolerated ischemia much better than buffer-treated hearts; also recorded: protects myocardial contractile force
oxygen consumption during state 3 or state 4 [14]: did not alter
